{"source": "patent US10597388B2", "about": "“Pyridazinone herbicides” (FMC CORPORATION, priority 2014, dated 2020)", "assay_type_in_all_cases": "in vivo", "key": {"[1]": {"test_system": "galium (catchweed bedstraw, Galium aparine)", "test": "Test A greenhouse herbicide test, postemergence", "method_in_brief": "(§1)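 Greenhouse postemergence test: formulated chemicals sprayed on one- to two-leaf plants (2 to 10 cm), grown in loam soil blended with sand. Injury assessed visually about 10 d later against untreated controls, scored 0 (no effect) to 100 (complete control).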"}, "[2]": {"test_system": "blackgrass (Alopecurus myosuroides)", "test": "Test A greenhouse herbicide test, postemergence", "method_in_brief": "as §1"}, "[3]": {"test_system": "galium (catchweed bedstraw, Galium aparine)", "test": "Test C greenhouse herbicide test, pre- and postemergence", "method_in_brief": "(§2)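 Preemergence: seeds sown in a loam soil–sand blend and sprayed with test chemicals in a non-phytotoxic solvent mixture containing surfactant. Postemergence: plants grown in peat-based medium and treated at 2 to 18 cm (1- to 4-leaf stage). After 13 to 15 d in a greenhouse, injury was visually rated 0–100 against controls.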"}, "[4]": {"test_system": "crabgrass, large (large crabgrass, Digitaria sanguinalis)", "test": "Test C greenhouse herbicide test, pre- and postemergence", "method_in_brief": "as §2"}, "[5]": {"test_system": "ragweed (common ragweed, Ambrosia elatior)", "test": "Test C greenhouse herbicide test, pre- and postemergence", "method_in_brief": "as §2"}, "[6]": {"test_system": "barnyardgrass (Echinochloa crus-galli)", "test": "Test C greenhouse herbicide test, pre- and postemergence", "method_in_brief": "as §2"}, "[7]": {"test_system": "lambsquarters (Chenopodium album)", "test": "Test C greenhouse herbicide test, pre- and postemergence", "method_in_brief": "as §2"}, "[8]": {"test_system": "wheat (winter wheat, Triticum aestivum)", "test": "Test C greenhouse herbicide test, pre- and postemergence", "method_in_brief": "as §2"}, "[9]": {"test_system": "johnsongrass (Sorghum halepense)", "test": "Test C greenhouse herbicide test, pre- and postemergence", "method_in_brief": "as §2"}, "[10]": {"test_system": "morningglory (Ipomoea coccinea)", "test": "Test C greenhouse herbicide test, pre- and postemergence", "method_in_brief": "as §2"}, "[11]": {"test_system": "foxtail, giant (giant foxtail, Setaria faberii)", "test": "Test C greenhouse herbicide test, pre- and postemergence", "method_in_brief": "as §2"}, "[12]": {"test_system": "ryegrass, Italian (Italian ryegrass, Lolium multiflorum)", "test": "Test C greenhouse herbicide test, pre- and postemergence", "method_in_brief": "as §2"}, "[13]": {"test_system": "oilseed rape (Brassica napus)", "test": "Test C greenhouse herbicide test, pre- and postemergence", "method_in_brief": "as §2"}, "[14]": {"settings": "125 g ai/ha, 0 to 100 scale where 0 is no effect and 100 is complete control"}, "[15]": {"settings": "Postemergence, 31 g ai/ha, scale 0 to 100 (0 no effect, 100 complete control)"}, "[16]": {"settings": "Postemergence, 125 g ai/ha, scale 0 to 100, 0 is no effect, 100 is complete control"}, "[17]": {"settings": "Postemergence, 250 g ai/ha, scale 0 to 100, 0 no effect, 100 complete control, 13 to 15 d"}, "[18]": {"settings": "Preemergence, 31 g ai/ha, scale 0 to 100, 0 is no effect, 100 is complete control"}, "[19]": {"settings": "Preemergence, 62 g ai/ha, scale 0 to 100, 0 is no effect, 100 is complete control"}, "[20]": {"settings": "Preemergence, 125 g ai/ha, scale 0 to 100, 0 is no effect, 100 is complete control"}, "[21]": {"settings": "Preemergence, 250 g ai/ha, scale 0 to 100, 0 no effect, 100 complete control"}, "[22]": {"settings": "postemergence, 62 g ai/ha, scale 0 to 100, 0 no effect, 100 complete control"}}}
{"smiles": "CCCC(=O)Oc1c(C)nn(C)c(=O)c1-c1c(C)sc2ccc(C)cc12", "note": "[Compound 105]", "values": [{"measurement": "Plant response rating, Galium", "setting": "[1]; [14]", "value": 100}, {"measurement": "Plant response rating, Galium", "setting": "[1]; 500 g ai/ha, visual rating after approx. 10 d, 0 to 100 scale (0 no effect, 100 complete control)", "value": 100}, {"measurement": "Plant response rating, Blackgrass", "setting": "[2]; [14]", "value": 80}, {"measurement": "Blackgrass plant response rating", "setting": "[2]; 500 g ai/ha, 0 to 100 scale, 0 is no effect, 100 is complete control", "value": 90}, {"measurement": "Plant response rating, Galium", "setting": "[3]; [15]", "value": 95}, {"measurement": "Plant response rating, Galium", "setting": "[3]; [16]", "value": 95}, {"measurement": "Plant response rating, Galium", "setting": "[3]; [17]", "value": 100}, {"measurement": "Plant response rating, Galium", "setting": "[3]; [18]", "value": 85}, {"measurement": "Plant response rating, Galium", "setting": "[3]; [19]", "value": 90}, {"measurement": "Plant response rating, Galium", "setting": "[3]; [20]", "value": 95}, {"measurement": "Galium plant response rating", "setting": "[3]; [21]", "value": 98}, {"measurement": "Plant response rating, Crabgrass, Large", "setting": "[4]; [15]", "value": 20}, {"measurement": "Plant response rating, Crabgrass, Large", "setting": "[4]; [16]", "value": 20}, {"measurement": "Plant response rating, Crabgrass, Large", "setting": "[4]; [17]", "value": 30}, {"measurement": "Plant response rating, Crabgrass, Large", "setting": "[4]; [18]", "value": 20}, {"measurement": "Plant response rating, Crabgrass, Large", "setting": "[4]; [19]", "value": 50}, {"measurement": "Plant response rating, Crabgrass, Large", "setting": "[4]; [20]", "value": 75}, {"measurement": "Crabgrass, Large plant response rating", "setting": "[4]; [21]", "value": 80}, {"measurement": "Crabgrass, Large plant response rating", "setting": "[4]; [22]", "value": 30}, {"measurement": "Plant response rating, Ragweed", "setting": "[5]; [15]", "value": 90}, {"measurement": "Plant response rating, Ragweed", "setting": "[5]; [16]", "value": 98}, {"measurement": "Plant response rating, Ragweed", "setting": "[5]; [17]", "value": 100}, {"measurement": "Plant response rating, Ragweed", "setting": "[5]; [18]", "value": 90}, {"measurement": "Plant response rating, Ragweed", "setting": "[5]; [19]", "value": 90}, {"measurement": "Plant response rating, Ragweed", "setting": "[5]; [20]", "value": 98}, {"measurement": "Ragweed plant response rating", "setting": "[5]; [21]", "value": 100}, {"measurement": "Plant response rating, Barnyardgrass", "setting": "[6]; [15]", "value": 10}, {"measurement": "Plant response rating, Barnyardgrass", "setting": "[6]; [16]", "value": 25}, {"measurement": "Plant response rating, Barnyardgrass", "setting": "[6]; [17]", "value": 20}, {"measurement": "Plant response rating, Barnyardgrass", "setting": "[6]; [18]", "value": 0}, {"measurement": "Plant response rating, Barnyardgrass", "setting": "[6]; [19]", "value": 30}, {"measurement": "Plant response rating, Barnyardgrass", "setting": "[6]; [20]", "value": 60}, {"measurement": "Barnyardgrass plant response rating", "setting": "[6]; [21]", "value": 90}, {"measurement": "Barnyardgrass plant response rating", "setting": "[6]; [22]", "value": 25}, {"measurement": "Plant response rating, Lambsquarters", "setting": "[7]; [15]", "value": 85}, {"measurement": "Plant response rating, Lambsquarters", "setting": "[7]; [16]", "value": 100}, {"measurement": "Plant response rating, Lambsquarters", "setting": "[7]; [17]", "value": 100}, {"measurement": "Plant response rating, Lambsquarters", "setting": "[7]; [18]", "value": 95}, {"measurement": "Plant response rating, Lambsquarters", "setting": "[7]; [19]", "value": 85}, {"measurement": "Plant response rating, Lambsquarters", "setting": "[7]; [20]", "value": 90}, {"measurement": "Lambsquarters plant response rating", "setting": "[7]; [21]", "value": 95}, {"measurement": "Plant response rating, Wheat", "setting": "[8]; [15]", "value": 0}, {"measurement": "Plant response rating, Wheat", "setting": "[8]; [16]", "value": 5}, {"measurement": "Plant response rating, Wheat", "setting": "[8]; [17]", "value": 5}, {"measurement": "Plant response rating, Wheat", "setting": "[8]; [18]", "value": 0}, {"measurement": "Plant response rating, Wheat", "setting": "[8]; [19]", "value": 10}, {"measurement": "Plant response rating, Wheat", "setting": "[8]; [20]", "value": 10}, {"measurement": "Wheat plant response rating", "setting": "[8]; [21]", "value": 5}, {"measurement": "Plant response rating, Johnsongrass", "setting": "[9]; [15]", "value": 5}, {"measurement": "Plant response rating, Johnsongrass", "setting": "[9]; [16]", "value": 0}, {"measurement": "Plant response rating, Johnsongrass", "setting": "[9]; [17]", "value": 0}, {"measurement": "Plant response rating, Johnsongrass", "setting": "[9]; [18]", "value": 10}, {"measurement": "Plant response rating, Johnsongrass", "setting": "[9]; [19]", "value": 20}, {"measurement": "Plant response rating, Johnsongrass", "setting": "[9]; [20]", "value": 20}, {"measurement": "Johnsongrass plant response rating", "setting": "[9]; [21]", "value": 60}, {"measurement": "Plant response rating, Morningglory", "setting": "[10]; [15]", "value": 100}, {"measurement": "Plant response rating, Morningglory", "setting": "[10]; [16]", "value": 100}, {"measurement": "Plant response rating, Morningglory", "setting": "[10]; [17]", "value": 100}, {"measurement": "Plant response rating, Morningglory", "setting": "[10]; [18]", "value": 85}, {"measurement": "Plant response rating, Morningglory", "setting": "[10]; [19]", "value": 90}, {"measurement": "Plant response rating, Morningglory", "setting": "[10]; [20]", "value": 100}, {"measurement": "Morningglory plant response rating", "setting": "[10]; [21]", "value": 95}, {"measurement": "Plant response rating, Foxtail, Giant", "setting": "[11]; [15]", "value": 40}, {"measurement": "Plant response rating, Foxtail, Giant", "setting": "[11]; [16]", "value": 75}, {"measurement": "Plant response rating, Foxtail, Giant", "setting": "[11]; [17]", "value": 85}, {"measurement": "Plant response rating, Foxtail, Giant", "setting": "[11]; [18]", "value": 60}, {"measurement": "Plant response rating, Foxtail, Giant", "setting": "[11]; [19]", "value": 80}, {"measurement": "Plant response rating, Foxtail, Giant", "setting": "[11]; [20]", "value": 90}, {"measurement": "Foxtail, Giant plant response rating", "setting": "[11]; [21]", "value": 100}, {"measurement": "Plant response rating, Ryegrass, Italian", "setting": "[12]; [15]", "value": 85}, {"measurement": "Plant response rating, Ryegrass, Italian", "setting": "[12]; [16]", "value": 90}, {"measurement": "Plant response rating, Ryegrass, Italian", "setting": "[12]; [17]", "value": 80}, {"measurement": "Plant response rating, Ryegrass, Italian", "setting": "[12]; [18]", "value": 40}, {"measurement": "Plant response rating, Ryegrass, Italian", "setting": "[12]; [19]", "value": 90}, {"measurement": "Plant response rating, Ryegrass, Italian", "setting": "[12]; [20]", "value": 90}, {"measurement": "Ryegrass, Italian plant response rating", "setting": "[12]; [21]", "value": 95}, {"measurement": "Plant response rating, Oilseed Rape", "setting": "[13]; [15]", "value": 5}, {"measurement": "Plant response rating, Oilseed Rape", "setting": "[13]; [16]", "value": 60}, {"measurement": "Plant response rating, Oilseed Rape", "setting": "[13]; [17]", "value": 75}, {"measurement": "Plant response rating, Oilseed Rape", "setting": "[13]; [18]", "value": 0}, {"measurement": "Plant response rating, Oilseed Rape", "setting": "[13]; [19]", "value": 5}, {"measurement": "Plant response rating, Oilseed Rape", "setting": "[13]; [20]", "value": 10}, {"measurement": "Oilseed Rape plant response rating", "setting": "[13]; [21]", "value": 10}]}
